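These data come from cells grown in 96-well plates and exposed to compound for 48 hours at five concentrations. Here, GI50 denotes the concentration required for 50% inhibition of growth. TGI denotes the concentration required for complete inhibition of growth.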

What all share (test): inhibition of tumour cell growth, NCI panel, 48 h
In assay [1] the test system is A549 NSCLC.
For assay [2], the system named is ACHN renal.
Assay [3] has as its system CAKI-1 renal.
In assay [4] the test system is COLO 205 colon.
Assay [5] has as its system EKVX NSCLC.
The subject of assay [6] is HCT-116 colon.
For assay [7], the system named is HCT-15 colon.
The test system of assay [8] is HOP-92 NSCLC.
The test system of assay [9] is LOX IMVI melanoma.
The test system of assay [10] is OVCAR-3 ovarian.
The test system of assay [11] is OVCAR-8 ovarian.
The test system of assay [12] is RXF 393 renal.
Assay [13] has as its system SF-268 CNS.
For assay [14], the system named is SK-OV-3 ovarian.
The test system of assay [15] is SNB-19 CNS.
The test system of assay [16] is U251 CNS.

Consider `CN(C)c1nc(-c2ccccc2)c(C(=O)c2c[nH]c3ccccc23)s1`, for which the TGI in assay [1], in [2], in assay [3], in [4], in assay [5] and in assay [6] was above 100 µM in each case. For the same molecule, the TGI in [7] is above 100 µM; in assay [8], above 33.2 µM; in assay [9], above 100 µM; in [10], above 94.4 µM; in assay [11], above 100 µM; in assay [12], above 91.5 µM. Moreover, the TGI in assay [13], in assay [14], in assay [15] and in assay [16] was above 100 µM throughout.
As to `COc1ccc(/C=C/C(=O)N[C@@H]2C(=O)N3[C@@H]2SC(C)(C)[C@@H]3C(=O)O)cc1`, the TGI in [1], in [2], in assay [3], in assay [4], in assay [5] and in [6] was above 100 µM throughout. For the same molecule, the TGI in [7], in [8], in assay [9], in [10], in [11] and in assay [12] was above 100 µM each time. Also, the TGI in assay [13], in [14], in [15] and in assay [16] was above 100 µM throughout.
With `ClC1=C(Cc2ccccc2)Cc2ccc3c(c21)CCC3`, the TGI in [1] was 98.2 µM; in assay [2], above 100 µM; in [3], 69.7 µM; in [4] it was 26.2 µM; in [5] it was above 100 µM; in [6], 94.9 µM. The TGI in assay [7] was above 100 µM; in assay [8], above 100 µM; in assay [9], 32.9 µM; in assay [10], 87.2 µM; in assay [11], above 100 µM; in assay [12] it was 45 µM. Moreover, the TGI in assay [13] is above 100 µM; in [14] it was above 100 µM; in assay [15], 52 µM; in [16] it was 39.3 µM.
As to `O=C(OCC1OC(c2nn[nH]n2)C(OC(=O)c2ccccc2)C1OC(=O)c1ccccc1)c1ccccc1` (stereo not given), the TGI in assay [1], in [2], in assay [3], in assay [4], in [5] and in [6] was above 100 µM each time. Also, the TGI in assay [7], in [8], in assay [9], in [10], in [11] and in assay [12] was above 100 µM each time. The TGI in [13], in assay [14], in [15] and in [16] was above 100 µM throughout.
Consider `CCOC(=O)CCC(NC(=O)c1ccc(Nc2nc3ccccc3nc2-c2cccs2)cc1)C(=O)OCC` (stereo not given), for which the TGI in assay [1], in [2], in [3], in [4], in assay [5] and in assay [6] was above 100 µM each time. The TGI in [7], in assay [8], in assay [9], in assay [10], in [11] and in assay [12] was above 100 µM in each case. For the same molecule, the TGI in [13], in assay [14], in [15] and in [16] was above 100 µM throughout.
As to `CCOC(=O)[C@@]12CCC(C1=O)[C@](C)(O)C[C@@H]2c1ccccc1`, the TGI in [1], in [2], in assay [3], in [4], in assay [5] and in [6] was above 100 µM throughout. The TGI in assay [7] was above 100 µM; in assay [8] it was above 100 µM; in [9], above 100 µM; in [10], 84 µM; in assay [11] it was above 100 µM; in [12], above 100 µM. For the same molecule, the TGI was above 100 µM in assay [13], 96.9 µM in assay [14], above 100 µM in [15] and above 100 µM in assay [16].
For the molecule `CC(C)NC(=O)OCCN=C1c2ccccc2CCc2ccccc21`, the TGI in [1] is above 100 µM; in assay [2], 68.4 µM; in assay [3], above 100 µM; in assay [4], 35.7 µM; in assay [5], 81.3 µM; in [6] it was 46.6 µM. Moreover, the TGI is 77.8 µM in assay [7]; 55 µM in [8]; 72.7 µM in assay [9]; 58.5 µM in assay [10]; above 100 µM in assay [11]; above 100 µM in assay [12]. Also, the TGI in assay [13] was found to be 80.7 µM; in [14] it was 85.4 µM; in [15], 66.8 µM; in [16], 50.6 µM.
On to `O=C(O)CC/C(=N\Nc1nsc2ccccc12)c1ccc(Cl)cc1`, for which the TGI is above 82.2 µM in [1]; above 80.6 µM in assay [2]; 52.2 µM in assay [3]; above 100 µM in [4]; above 100 µM in assay [5]; 68.9 µM in assay [6]. Also, the TGI in [7] is 53.5 µM; in assay [8] it was above 100 µM; in assay [9] it was 25.7 µM; in assay [10], 47.2 µM; in assay [11], above 100 µM; in assay [12] it was above 53.7 µM. The TGI in assay [13] was above 89.3 µM; in assay [14], 89.6 µM; in assay [15], above 100 µM; in [16], 82.4 µM.
As for `CC(=O)Oc1cc2c(cc1OC(C)=O)[C@H]1CC[C@]3(C)[C@@H](OC(C)=O)CC[C@H]3[C@@H]1CC2`, the TGI stood at 24.2 µM in assay [1]; 16.5 µM in [2]; 12.5 µM in assay [3]; 15.5 µM in [4]; 9.64 µM in [5]; 18.5 µM in [6]. Moreover, the TGI in [7] came out at 15.4 µM; in assay [8], 5.3 µM; in [9], 16.6 µM; in assay [10], 7.88 µM; in assay [11], 28 µM; in assay [12], 16.5 µM. Further, the TGI came out at 22.5 µM in assay [13], 21.7 µM in [14], 21.7 µM in assay [15] and 17.6 µM in assay [16]. In addition, in assay [6], the GI50 is 5.08 µM.
As for `CN(C)c1ccc(/C=C(\NC(=O)c2ccccc2)C(=O)NC(CCC(=O)O)C(=O)O)cc1` (stereo not given), the TGI in assay [1], in assay [2], in [3], in [4], in assay [5] and in assay [6] was above 100 µM each time. Also, the TGI in assay [7], in [8], in assay [9], in assay [10], in assay [11] and in assay [12] was above 100 µM throughout. The TGI in assay [13], in assay [14], in [15] and in assay [16] was above 100 µM in each case.
`NS(=O)(=O)c1ccc(CNc2nc(-c3cccs3)nc3ccc(I)cc23)cc1`: the TGI was 28.5 µM in assay [1]; 58.3 µM in assay [2]; 22.8 µM in [3]; 29.9 µM in assay [4]; 29.3 µM in assay [5]; 28.1 µM in [6]. For the same molecule, the TGI came to 28.9 µM in [7]; 54.4 µM in assay [8]; 29.3 µM in assay [9]; 30.1 µM in assay [10]; 37.7 µM in assay [11]; 43.5 µM in [12]. For the same molecule, the TGI was found to be 61.6 µM in assay [13], 52.6 µM in [14], 39.7 µM in assay [15] and 37.7 µM in [16].
As to `COc1cc([N+](=O)[O-])ccc1NC1=CC(=O)CCC1`, the TGI in assay [1], in assay [2], in assay [3], in assay [4], in assay [5] and in assay [6] was above 100 µM each time. Besides, the TGI in assay [7], in assay [8], in assay [9], in [10], in assay [11] and in assay [12] was above 100 µM throughout. Besides, the TGI in [13], in assay [14], in assay [15] and in [16] was above 100 µM throughout.
Regarding `Cc1cc(C)c2c(=O)n(CN3CCC(O)(c4ccccc4)CC3)sc2n1`, the TGI in assay [1] is above 100 µM; in assay [2], 37.9 µM; in assay [3], above 100 µM; in assay [4], above 100 µM; in assay [5], 81.7 µM; in assay [6] it was above 100 µM. For the same molecule, the TGI in assay [7] is above 100 µM; in assay [8], above 100 µM; in [9] it was above 100 µM; in assay [10] it was above 100 µM; in assay [11], above 100 µM; in [12], 37.7 µM. For the same molecule, the TGI in [13], in assay [14], in assay [15] and in assay [16] was above 100 µM throughout.
Consider `O=[N+]([O-])O.[Ga]`, for which the TGI in assay [1] was above 10000 µM; in assay [2] it was above 10000 µM; in [3], above 9820 µM; in assay [4], above 9550 µM; in assay [5] it was 5620 µM; in assay [6], above 10000 µM. Further, the TGI in assay [7] was 5780 µM; in assay [8], 3700 µM; in assay [9], above 8240 µM; in assay [10], 6920 µM; in assay [11], above 7940 µM; in assay [12] it was above 9480 µM. Moreover, the TGI in assay [13] is above 10000 µM; in assay [14], 390 µM; in assay [15], above 10000 µM; in [16] it was 4930 µM. The GI50 in [8] was 673 µM; in [13], 3000 µM.
On to `CN(CCCCN(C)CCc1ccc(Cl)c(Cl)c1)CCCCN1CCCC1`, for which the TGI in [1] is 3.35 µM; in assay [2], 3.64 µM; in assay [3], 3.13 µM; in [4], 3.8 µM; in assay [5], 3.54 µM; in assay [6], 2.93 µM. In addition, the TGI in assay [7] was found to be 3.73 µM; in [8], 2.95 µM; in assay [9] it was 1.66 µM; in [10], 4.34 µM; in assay [11], 6.25 µM; in [12], 3.03 µM. Further, the TGI in [13] worked out at 3.12 µM; in assay [14] it was 6.05 µM; in assay [15] it was 5.23 µM; in assay [16] it was 1.97 µM.
Consider `COc1ccc2c(c1)OC[C@@H]1c3cc4c(cc3O[C@H]21)OCO4`, for which the TGI in assay [1], in [2], in assay [3], in assay [4], in [5] and in assay [6] was above 100 µM each time. For the same molecule, the TGI in assay [7], in assay [8], in assay [9], in assay [10], in assay [11] and in [12] was above 100 µM in each case. Moreover, the TGI in assay [13], in assay [14], in assay [15] and in [16] was above 100 µM throughout.
Regarding `N#CCCN(CCC#N)c1ccc(/C=C2\N=C(c3ccccc3)N(c3ccccn3)C2=O)cc1`, the TGI in [1], in assay [2], in [3], in assay [4], in [5] and in assay [6] was above 100 µM in each case. For the same molecule, the TGI in assay [7], in [8], in assay [9], in assay [10], in assay [11] and in assay [12] was above 100 µM each time. The TGI in assay [13], in assay [14], in assay [15] and in [16] was above 100 µM throughout.
